Reference: patent publication US11414454B2, “Compositions, methods, and systems for affinity-based protein identification and purification” (Auctus Biologies, Inc., priority 2017, dated 2022)
No end group written: not given here.

Tests used:
RPtag(large) = test: pH profile of Kd by fluorescence anisotropy; assay type: binding, Thermoanaerobacter tengcongensis; settings: buffers pH 1.5 to 13
Protocol: The Kds of Nd8,Cd4 for RPtag(large) was measured in the presence of buffers of different pHs ranging from 1.5 to 13.
For these experiments, Kds were measured by fluorescence anisotropy as described above in the following buffers, all at 100 mM with 0.005% Tween 20: glycine pH 1.5, glycine pH 2.0, glycine pH 3.0, acetate pH 4.5, 2-(N-morpholino)ethanesulfonic acid pH 6.0, tris pH 7.0, tris pH 7.5, tris pH 8.0, tris pH 8.5, borate pH 10.0, phosphate pH 11.5, phosphate pH 13.0.

[1] = system: immobilized RPtag(large) column; test: Native elution from immobilized RPtag(large) column (3 M NaCl binding, 3 M imidazole elution); parameters: species or system Thermoanaerobacter tengcongensis; settings: bound in 100 mM Tris pH 8.0, 3 M NaCl, 0.005% Tween20
Excerpt: Because of the observed stabilizing character of NaCl and destabilizing character of imidazole on Nd8Cd4 binding, these reagents, among others, were incorporated into a novel buffering system for use with the disclosed proteins, peptides, systems, and methods. In particular, the effect of this novel buffer on binding of RPtag (small) Nd8Cd4 to an immobilized RPtag(large) column was studied. These experiments included eluting both (1) rhodamine labeled peptide and (2) N-terminally RPtag(small) Nd8Cd4 tagged with tagRFP from a column under native conditions. Generally, native conditions is taken to mean at or near biological conditions under which many proteins are folded, e.g. pH 4-9 at moderate temperature (4° C.-30° C.) in the absence of denaturants (e.g. guanidine hydrochloride, urea, SDS). This is in contrast to denaturing conditions, which generally rely on extreme pH (e.g. ≤2) denaturants, or high temperature to unfold proteins.
Briefly, columns, as described above, were first equilibrated with 10 mL 100 mM Tris pH 8.0, 3 M NaCl, 0.005% Tween20. Next, 1 mL of 10 uM rhodamine-tagged Nd8Cd4 or tagRFP containing an N-terminal RPtag (small) Nd8Cd4 tag was applied in the same buffer. The column was then washed with 10 mL of the same buffer. Finally, bound target molecules were eluted with 10 mL of 100 mM Tris pH 8.0, 3 M imidazole, 0.005% Tween20.

RPtag (large) [2] = test: Fluorescence anisotropy Kd of rhodamine labeled RPtag (small) peptides for RPtag (large); assay type: binding, Thermoanaerobacter tengcongensis
Protocol: 50 nM of RP-Tag Small (see Sequence 3, below) with an N-terminal Rhodamine B label was incubated with increasing concentrations of either RP-Tag Large (see Sequence 2) or Bovine Serum Albumin (BSA) in 50 mM Tris pH 8.0, 150 mM NaCl, 10 mM 2-mercaptoethanol, and 0.005% Tween 20 for 5 min in black 96-well plates at room temperature.
Anisotropy was then measured, and a Kd calculated by fitting the data to the equation f=y0+(ymax−y0)*(Ptot+x+Kd−sqrt((Ptot+x+Kd)^2−4*Ptot*x))/(2*Ptot), where y0 is the baseline anisotropy, ymax is the maximum anisotropy, Ptot is the fixed concentration of labeled peptide used, x is the variable concentration of protein used, and Kd is the measured Kd.
The indicated concentrations of RPtag (large) and an anti-His tag antibody (4E3D10H2/E3 purchased from ThermoFisher Scientific) were incubated with 1 nM rhodamine labeled native RPtag (small) peptide and 6×His peptide (Rhodamine-GHHHHHH), respectively, and fluorescence anisotropy measured. BSA incubated with native rhodamine labeled RPtag(small) is included as a control for non-specific binding. Kd's were calculated according to the equation f=y0+(ymax−y0)*(Ptot+x+Kd−sqrt((Ptot+x+Kd)^2−4*Ptot*x))/(2*Ptot), where y0 is the baseline anisotropy, ymax is the maximum anisotropy, Ptot is the fixed concentration of labeled peptide used, x is the variable concentration of protein used, and Kd is the measured Kd. We measured a Kd of 0.2±0.1 nM for RPtag(large) binding RPtag(small), and a Kd of 6±1 nM for the antibody/6×His tag pair.
Regarding the studies shown in FIG. 14, increasing concentrations of unlabeled RPtag large with the indicated mutations (native, f137d, and f137e) were incubated for 1 h with 1 nM rhodamine labeled RPtag small peptide and the fluorescence anisotropy was measured. Resultant curves were fit with the equation f=y0+(ymax−y0)*(Ptot+x+Kd−sqrt((Ptot+x+Kd)^2−4*Ptot*x))/(2*Ptot), where y0 is the baseline anisotropy, ymax is the maximum anisotropy, Ptot is the fixed concentration of labeled peptide used, x is the variable concentration of protein used, and Kd is the measured Kd. Data are presented here as Ka=1/Kd. Log transformed Ka's were then compared by one-way ANOVA with Holm-Sidak post hoc correction. ***p<0.001, **p<0.01, *p<0.05. data are mean±SEM (n=3-4). Buffer was 50 mM Tris pH 8.0, 0.005% tween20. Proteins were expressed and purified by single step NiNTA chromatography as before. Peptides were synthesized solid-state and handled as previous.

RPtag (large) [3] = test: Buffer additive screen, Kd by fluorescence anisotropy; assay type: binding, Thermoanaerobacter tengcongensis
Protocol: To determine reagent compatibility with the disclosed system, an additive screen was performed, wherein the Kd between RPtag (large) and 3 RPtag (small) peptides—native, Nd8Cd4, and Nd2p5ae18a—were tested in the presence of several common buffer additives (Table 3).

[4] = N-terminal rhodamine tagged peptide, unlabeled RPtag (large), 50 mM Tris pH 8.0, 0.005% Tween 20, mean ± SE
[5] = 100 mM Tris pH 8.0, 0.005% Tween 20, No Additive

Row | Sequence | pH of relative maximum affinity (RPtag(large)) [pH] | elution behaviour with 100 mM Tris pH 8.0, 3 M imidazole [1] | Kd (RPtag (large) [2]; [4]) [nM] | Kd (RPtag (large) [3]; [5]) [nM] | Kd (RPtag (large) [3]; BME (10%)) [nM] | Kd (RPtag (large) [3]; CaCl2 (3M)) [nM] | Kd (RPtag (large) [3]; DMSO (20%)) [nM] | Kd (RPtag (large) [3]; DTT (100 mM)) [nM] | Kd (RPtag (large) [3]; EtOH (20%)) [nM] | Kd (RPtag (large) [3]; Gdn-HCl (6M)) [nM] | Kd (RPtag (large) [3]; KCl (3M)) [nM] | Kd (RPtag (large) [3]; MeOH (20%)) [nM] | Kd (RPtag (large) [3]; MgCl2 (3M)) [nM] | Kd (RPtag (large) [3]; MnSO4 (10 mM)) [nM] | Kd (RPtag (large) [3]; NH4SO4 (3M)) [nM] | Kd (RPtag (large) [3]; NaCl (3M)) [nM] | Kd (RPtag (large) [3]; NiCl2 (100 mM)) [nM] | Kd (RPtag (large) [3]; PG (50%)) [nM] | Kd (RPtag (large) [3]; SDS (2%)) [nM] | Kd (RPtag (large) [3]; TritonX-100 (2%)) [nM] | other results
1 | KIANFIPAELKLITKANVQ [Nd2, p5a, e18a, KIANFIPAELKLITKANVQ] | ~8 | diffuse band | 0.047 ± 0.018 | 0.037 | 6.7 | 150 | 0.023 | 0.073 | 0.1 | > 10000 | 0.011 | 0.056 | 350 | 22 | 44 | < 0.001 | 2.2 | 49 | > 10000 | 0.046 | Kd (RPtag (large) [2]): ~0.047 nM; Kd (RPtag (large) [3]; Tween20 (2%)): 4.7 nM; Kd (RPtag (large) [3]; acetone (20%)): 0.019 nM; Kd (RPtag (large) [3]; glycerol (20%)): < 0.001 nM; Kd (RPtag (large) [3]; imidazole (3M)): > 10000 nM; Kd (RPtag (large) [3]; ribose (3M)): < 0.001 nM; Kd (RPtag (large) [3]; sorbitol (3M)): < 0.001 nM; Kd (RPtag (large) [3]; urea (8M)): > 10000 nM
2 | PAELKLITK [Nd8, Cd4, PAELKLITK] | ~8 | eluted as a tight band | 14 ± 1 | 14 | 740 | > 10000 | 140 | 33 | 733 | > 10000 | 0.066 | 34 | 240 | 160 | 2.8 | 0.15 | 42 | 4600 | > 10000 | 180 | Kd (RPtag (large) [2]; N-terminal rhodamine tagged peptide, unlabeled RPtag (large), 50 mM Tris pH 8.0, 0.005% Tween 20, mean ± SE, listed as Nd8Cd4): ~14 nM; increased affinity with kosmotropic salts NaCl and KCl (RPtag (large) [3]; 3M salt versus no additive): > 100 fold; Kd (RPtag (large) [3]; Tween20 (2%)): 45 nM; Kd (RPtag (large) [3]; acetone (20%)): 22 nM; Kd (RPtag (large) [3]; glycerol (20%)): 27 nM; Kd (RPtag (large) [3]; imidazole (3M)): > 10000 nM; Kd (RPtag (large) [3]; ribose (3M)): 42 nM; Kd (RPtag (large) [3]; sorbitol (3M)): 16 nM; Kd (RPtag (large) [3]; urea (8M)): > 10000 nM
